# Literature values as cited in US20080182823A1, “POLYMER-LINKED-BIOPHOSPHONATE INHALANT FORMULATIONS AND METHODS FOR USING THE SAME” (priority 2007, published 2008).
# Tested on: antral mucosa
# Conditions: rat models; Lichtenberger et al., Dig. Dis. Sci. 45(9):1792-1801, 2000
row,SMILES,antral mucosal injury
1,"O=P(O)(O)C(O)(Cc1cccnc1)P(=O)(O)O [risedronate, [1-Hydroxy-2-(3-pyridinyl)-ethylidine] bis-phosphonate]",cause antral mucosal injury
2,"NCCCC(O)(P(=O)(O)O)P(=O)(O)O [alendronate, (4-amino-1-hydroxybutylidene)-bis-phosphonate]",cause antral mucosal injury
